# Experimental data from publication PMC2840623 (Biochemistry, 2010).
# How the values were obtained:
# [1] = target: T1, epi-isozizaene synthase (EIZS) (Streptomyces coelicolor, UniProt Q9K499); test: X-ray crystal structure, […] Å; type: binding; settings: complex with 3 Mg2+ and BTAC; active site
# T1 sequence (Q9K499 1-361): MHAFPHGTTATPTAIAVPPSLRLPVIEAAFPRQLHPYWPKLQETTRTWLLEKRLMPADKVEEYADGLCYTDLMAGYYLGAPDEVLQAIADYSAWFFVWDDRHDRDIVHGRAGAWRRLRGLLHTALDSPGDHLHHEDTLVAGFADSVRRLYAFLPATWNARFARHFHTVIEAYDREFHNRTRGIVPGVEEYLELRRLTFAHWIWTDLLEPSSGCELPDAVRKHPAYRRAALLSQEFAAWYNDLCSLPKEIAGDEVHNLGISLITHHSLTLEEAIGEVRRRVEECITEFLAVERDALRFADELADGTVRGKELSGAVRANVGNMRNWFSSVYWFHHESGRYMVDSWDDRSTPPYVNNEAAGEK
# [2] = target: epi-isozizaene synthase (EIZS) (Streptomyces coelicolor, UniProt Q9K499, F198A); test: X-ray crystal structure, […] Å; type: binding; settings: complex with 3 Mg2+ and PPi; active site, alternative orientation
# Chain of epi-isozizaene synthase (EIZS) (Streptomyces coelicolor, UniProt Q9K499, F198A) (Q9K499 whole entry F198A): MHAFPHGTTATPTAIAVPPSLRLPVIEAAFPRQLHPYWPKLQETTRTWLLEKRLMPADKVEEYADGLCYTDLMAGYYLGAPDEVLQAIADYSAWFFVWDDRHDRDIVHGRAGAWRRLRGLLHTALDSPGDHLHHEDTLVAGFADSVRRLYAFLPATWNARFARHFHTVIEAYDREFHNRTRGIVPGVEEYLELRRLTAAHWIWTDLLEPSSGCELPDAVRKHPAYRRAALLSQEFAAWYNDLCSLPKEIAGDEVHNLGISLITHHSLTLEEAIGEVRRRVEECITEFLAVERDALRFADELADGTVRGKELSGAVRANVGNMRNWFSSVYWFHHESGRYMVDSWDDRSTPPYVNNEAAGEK
compound,measurement,setting,value
"O=P(O)(O)OP(=O)(O)O [PPi, inorganic pyrophosphate]","X-ray crystal structure, 1.60 Å",[1],"The PPi anion also accepts hydrogen bonds from the side chains of R194, K247"
"CC[N+](CC)(CC)Cc1ccccc1 [BTAC, benzyltriethylammonium cation]","X-ray crystal structure, 1.64 Å",[2],the BTAC molecule occupies an alternative position
